Measurements as given in ChEMBL document CHEMBL4257548, “Phenothiazine antioxidants increase mitochondrial biogenesis and frataxin levels in Friedreich's ataxia cells” (Medchemcomm, 2018).
Calls of active or inactive are those of the source. The rule behind the calls is not given here.

Tests used:
GM16216 [1] = test: Induction of mitochondrial biogenesis in human GM16216 cells assessed as ratio of COX1 to SDH-A protein levels at 250 after 48 hrs by ELISA relative to control; type: functional
GM16216 [2] = test: Induction of mitochondrial biogenesis in human GM16216 cells assessed as ratio of COX1 to SDH-A protein levels at 50 after 48 hrs by ELISA relative to control; type: functional
GM15850 [3] = test: Restoration of total aconitase activity in human GM15850 cells at 250 nM after 5 days by colorimetric method relative to control; type: functional
GM15850 [4] = test: Effect on frataxin expression in human GM15850 cells at 250 nM after 24 hrs by ELISA relative to control; type: functional
GM15850 [5] = test: Induction of mitochondrial biogenesis in human GM15850 cells assessed as ratio of COX1 to SDH-A protein levels at 50 after 24 hrs by ELISA relative to control; type: functional
GM15850 [6] = test: Effect on frataxin expression in human GM15850 cells at 250 nM after 48 hrs by ELISA relative to control; type: functional
GM16216 [7] = test: Effect on frataxin expression in human GM16216 cells at 250 nM after 48 hrs by ELISA relative to control; type: functional
GM16216 [8] = test: Induction of mitochondrial biogenesis in human GM16216 cells assessed as ratio of COX1 to SDH-A protein levels at 50 after 24 hrs by ELISA relative to control; type: functional
GM16216 [9] = test: Effect on frataxin expression in human GM16216 cells at 50 nM after 48 hrs by ELISA relative to control; type: functional
GM15850 [10] = test: Effect on frataxin expression in human GM15850 cells at 50 nM after 48 hrs by ELISA relative to control; type: functional
GM16216 [11] = test: Induction of mitochondrial biogenesis in human GM16216 cells assessed as ratio of COX1 to SDH-A protein levels at 250 after 24 hrs by ELISA relative to control; type: functional
GM16216 [12] = test: Effect on frataxin expression in human GM16216 cells at 50 nM after 24 hrs by ELISA relative to control; type: functional
GM15850 [13] = test: Restoration of total aconitase activity in human GM15850 cells at 50 nM after 5 days by colorimetric method relative to control; type: functional
GM15850 [14] = test: Induction of mitochondrial biogenesis in human GM15850 cells assessed as ratio of COX1 to SDH-A protein levels at 50 after 48 hrs by ELISA relative to control; type: functional
GM15850 [15] = test: Induction of mitochondrial biogenesis in human GM15850 cells assessed as ratio of COX1 to SDH-A protein levels at 250 after 48 hrs by ELISA relative to control; type: functional
GM15850 [16] = test: Effect on frataxin expression in human GM15850 cells at 50 nM after 24 hrs by ELISA relative to control; type: functional
GM15850 [17] = test: Induction of mitochondrial biogenesis in human GM15850 cells assessed as ratio of COX1 to SDH-A protein levels at 250 after 24 hrs by ELISA relative to control; type: functional
GM16216 [18] = test: Effect on frataxin expression in human GM16216 cells at 250 nM after 24 hrs by ELISA relative to control; type: functional
GM16216 [19] = test: Restoration of total aconitase activity in human GM16216 cells at 50 nM after 5 days by colorimetric method relative to control; type: functional
GM16216 [20] = test: Restoration of total aconitase activity in human GM16216 cells at 250 nM after 5 days by colorimetric method relative to control; type: functional
GM15850 [21] = test: Effect on mitochondrial membrane potential in human GM15850 cells assessed as loss of mitochondrial membrane potential at 0.25 uM after 16 hrs by JC1 staining based flow cytometry (reference value: 13%); type: functional
GM15850 [22] = test: Inhibition of ATP production in human GM15850 cells after 24 hrs by Vialight reagent based luminescence assay; type: functional, cell-based
GM15850 [23] = test: Effect on mitochondrial membrane potential in human GM15850 cells assessed as intact mitochondrial membrane at 0.25 uM after 16 hrs by JC1 staining based flow cytometry (reference value: 87%); type: functional
GM15850 [24] = test: Cytoprotection against DEM-induced toxicity in human GM15850 cells assessed as increase in cell viability at 0.5 to 2.5 uM pretreated for 16 hrs followed by DEM addition and measured after 5 hrs by live/dead staining based flow cytometry; type: functional
GM15850 [25] = test: Cytotoxicity against human GM15850 cells at 2.5 uM after 24 to 48 hrs by live/dead staining-based flow cytometry; type: cell-based; details: gm15850, 2.5 µM
GM16216 [26] = test: Effect on mitochondrial membrane potential in human GM16216 cells assessed as intact mitochondrial membrane at 0.25 uM after 16 hrs by JC1 staining based flow cytometry (reference value: 87%); type: functional
GM16216 [27] = test: Cytoprotection against DEM-induced toxicity in human GM16216 cells assessed as increase in cell viability at 0.5 to 2.5 uM pretreated for 16 hrs followed by DEM addition and measured after 5 hrs by live/dead staining based flow cytometry; type: functional
GM16216 [28] = test: Inhibition of ATP production in human GM16216 cells after 24 hrs by Vialight reagent based luminescence assay; type: functional, cell-based
GM15850 [29] = test: Effect on ATP production in human GM15850 cells at 0.1 uM after 24 hrs by Vialight reagent based luminescence assay; type: functional, cell-based
GM16216 [30] = test: Cytotoxicity against human GM16216 cells at 2.5 uM after 24 to 48 hrs by live/dead staining-based flow cytometry; type: cell-based; details: gm16216, 2.5 µM
GM16216 [31] = test: Effect on ATP production in human GM16216 cells at 0.1 uM after 24 hrs by Vialight reagent based luminescence assay; type: functional, cell-based
GM16216 [32] = test: Effect on mitochondrial membrane potential in human GM16216 cells assessed as loss of mitochondrial membrane potential at 0.25 uM after 16 hrs by JC1 staining based flow cytometry (reference value: 13%); type: functional
GM15850 [33] = test: Increase in frataxin expression in human GM15850 cells at 250 nM after 24 to 48 hrs by ELISA; type: functional, cell-based
GM15850 [34] = test: Increase in frataxin expression in human GM15850 cells at 50 nM after 24 to 48 hrs by ELISA; type: functional, cell-based
GM16216 [35] = test: Increase in frataxin expression in human GM16216 cells at 50 nM after 24 to 48 hrs by ELISA; type: functional, cell-based
GM16216 [36] = test: Increase in frataxin expression in human GM16216 cells at 250 nM after 24 to 48 hrs by ELISA; type: functional, cell-based
GM16216 [37] = test: Inhibition of ATP production in human GM16216 cells at 2.5 uM after 24 hrs by Vialight reagent based luminescence assay; type: functional, cell-based
GM15850 [38] = test: Cytotoxicity against human GM15850 cells at 0.25 to 2.5 uM after 24 to 48 hrs by live/dead staining-based flow cytometry; type: cell-based; details: gm15850, 2.5 µM
GM15850 [39] = test: Increase in ATP production in human GM15850 cells at 0.1 to 0.5 uM after 24 hrs by Vialight reagent based luminescence assay; type: functional, cell-based
GM16216 [40] = test: Increase in ATP production in human GM16216 cells at 0.1 to 0.5 uM after 24 hrs by Vialight reagent based luminescence assay; type: functional, cell-based
GM16216 [41] = test: Cytotoxicity against human GM16216 cells at 0.25 to 2.5 uM after 24 to 48 hrs by live/dead staining-based flow cytometry; type: cell-based; details: gm16216, 2.5 µM
GM15850 [42] = test: Inhibition of ATP production in human GM15850 cells at 2.5 uM after 24 hrs by Vialight reagent based luminescence assay; type: functional, cell-based

Compound: CCCCCCCCCCCCCCCN(CCCC)c1ccc2nc3ccc(=O)cc-3sc2c1
- Activity (GM16216 [1]): 137%
- Activity (GM16216 [2]): 123%
- Activity (GM15850 [3]): 116%
- Activity (GM15850 [4]): 123%
- Activity (GM15850 [5]): 117%
- Activity (GM15850 [6]): 127%
- Activity (GM16216 [7]): 127%
- Activity (GM16216 [8]): 117%
- Activity (GM16216 [9]): 121%
- Activity (GM15850 [10]): 121%
- Activity (GM16216 [11]): 127%
- Activity (GM16216 [12]): 116%
- Activity (GM15850 [13]): 115%
- Activity (GM15850 [14]): 123%
- Activity (GM15850 [15]): 137%
- Activity (GM15850 [16]): 116%
- Activity (GM15850 [17]): 127%
- Activity (GM16216 [18]): 123%
- Activity (GM16216 [19]): 115%
- Activity (GM16216 [20]): 116%

Compound: CCCCCc1cc2nc3ccc(N(C)C)cc3sc-2cc1=[N+](C)C.[I-]
- Activity (GM15850 [21]): 19%
- inhibition (GM15850 [22]): Dose-dependent effect
- Activity (GM15850 [23]): 81%
- Activity (GM15850 [24]): Active
- Activity (GM15850 [25]): Toxic
- Activity (GM16216 [26]): 81%
- Activity (GM16216 [27]): Active
- inhibition (GM16216 [28]): Dose-dependent effect
- Activity (GM15850 [29]): inactive
- Activity (GM16216 [30]): Toxic
- Activity (GM16216 [31]): inactive
- Activity (GM16216 [32]): 19%

Compound: CCCCCCCCCCCCCCCCc1cc2nc3ccc(N(C)C)cc3sc-2cc1=[N+](C)C.[I-]
- Activity (GM15850 [21]): 14%
- Activity (GM15850 [33]): inactive
- Activity (GM15850 [34]): Active
- Activity (GM16216 [35]): Active
- Activity (GM15850 [23]): 86%
- Activity (GM15850 [24]): Active
- Activity (GM16216 [26]): 86%
- Activity (GM16216 [27]): Active
- Activity (GM16216 [36]): inactive
- inhibition (GM16216 [37]): Active
- Activity (GM15850 [38]): Non-Toxic
- Activity (GM15850 [39]): Active
- Activity (GM16216 [40]): Active
- Activity (GM16216 [41]): Non-Toxic
- inhibition (GM15850 [42]): Active
- Activity (GM16216 [32]): 14%

Compound: CN(C)c1ccc2nc3ccc(N(C)C)cc3[s+]c2c1.[Cl-] [METHYLENE BLUE ANHYDROUS]
- Activity (GM15850 [21]): 17%
- Activity (GM15850 [23]): 83%
- Activity (GM16216 [26]): 83%
- Activity (GM16216 [32]): 17%
